Laboratory results taken from US8658692B2, “Method of preparation an inclusion-complex comprising hydrophobic physiological activation material including with cyclodextrin and its use” (Macrocare Tech., Ltd., priority 2007, dated 2014).

Columns and labels:
human fibroblasts [1] = assay: Collagen synthesis / collagen proliferation performance (3H-proline incorporation, RCB); format: cell-based; conditions: for collagen proliferation, result in words (Table 2, FIG. 4): concentrations 10^−6 to 10^−4
Procedure: In order to determine degree of collagen synthesis, human fibroblasts were cultured in a 24-well microtiter plate. The same sample as used for cell proliferation was diluted in a rate of 1/10 in a culture medium and the diluted sample was added to the cultured fibroblasts. The samples used herein were vitamin C, genistein, cyclodextrin, and the inclusion-complexes prepared in Examples 1 and 2.
At 3 days after culture, 0.5 ml of 10% FBS containing DMEM medium was added to each well, followed by adding 10 μCi of L[2,3,4,5-3H]-proline thereto. After 24 hours, the medium and the cells were collected from the well and fed into a 5% trichloroacetic acid (TCA) solution to rinse the product. The rinsed product was plated in two test tubes. 1 unit/μl of Type I collagenase was added to one of the test tubes and cultured at 37° C. for 90 minutes, while the other test tube was stored at 4° C.
After that, adding 0.05 ml of 50% TCA to both the test tubes and leaving the same at 4° C. for 20 minutes, each of the test tubes was subjected to centrifugation at 12,000 rpm for 10 minutes. The resultant supernatant and precipitate were detected using a liquid scintillation counter (LSC) to measure decay per minute (dpm) values. The measured dpm values were used to calculate relative collagen biosynthesis (RCB) values according to the following equation 1: RCB=collagen dpm value/{[([…])×5.4]+collagen dpm value}×100 Equation 1

human fibroblasts [2] = assay: Fibroblast proliferation performance (MTT); format: cell-based; conditions: 4 days culture
Procedure: In order to evaluate cell proliferation performance of the inclusion-complex according to the present invention, fibroblast proliferation performance was determined.
More particularly, human fibroblasts were cultured in Dulbecco s Modified Eagle's medium (DMEM) containing 2.5% fetal bovine serum (FBS) and the cultured cells were plated in a 96-well microtiter plate at 5,000 cells/well.
Each of the inclusion-complex produced in Example 1 (an inclusion-complex of β-cyclodextrin/geniste with a genistein concentration of 5%), the inclusion-complex produced in Example 2 (an inclusion-complex of hydroxypropyl β-cyclodextrin/genistein with a genistein concentration of 5%) was used as a test sample. On the other hand, genistein, retinol and tocopherol, hydroxypropyl β-cyclodextrin and β-cyclodextrin, respectively, were used as controls. Each of the samples was regulated to have a final concentration of 1 mg/ml and added to the fibroblasts, followed by additional culturing of the fibroblasts for 4 days.
After completing the culture, 50 μl of 0.2% MTT (3-[4,5-dimethylthiazol-2-yl]-2,5-diphenyltetrazolium bromide) solution was added to each well, and then, cultured at 37° C. for 4 hours. The obtained formazan was dissolved in dimethyl sulfoxide (DMSO). The formazan solution was subjected to determination of absorption at 570 nm using a microplate reader.

Compound | Collagen proliferation rate (human fibroblasts [1]; concentration 10^−4) | Collagen proliferation rate (human fibroblasts [1]; concentration 10^−5) | Collagen proliferation rate (human fibroblasts [1]; concentration 10^−6) | collagen proliferation, result in words (Table 2, FIG. 4) (human fibroblasts [1]) | cell viability dependent on concentration (FIG. 2) (human fibroblasts [2])
OC[C@H]1O[C@@H]2O[C@H]3[C@H](O)[C@@H](O)[C@@H](O[C@H]4[C@H](O)[C@@H](O)[C@@H](O[C@H]5[C@H](O)[C@@H](O)[C@@H](O[C@H]6[C@H](O)[C@@H](O)[C@@H](O[C@H]7[C@H](O)[C@@H](O)[C@@H](O[C@H]8[C@H](O)[C@@H](O)[C@@H](O[C@H]1[C@H](O)[C@H]2O)O[C@@H]8CO)O[C@@H]7CO)O[C@@H]6CO)O[C@@H]5CO)O[C@@H]4CO)O[C@@H]3CO [Cyclodextrin, β-cyclodextrin] | 102% | 101% | 102% | not greatly improved | –
O=c1c(-c2ccc(O)cc2)coc2cc(O)cc(O)c12 [Genistein] | 115% | 112% | 105% | more excellent effects with increased concentration | increased somewhat in proportion to concentration
O=C1O[C@H]([C@@H](O)CO)C(O)=C1O [Vitamin C] | 98% | 105% | 106% | decreased as its concentration increased | –
CC1=C(/C=C/C(C)=C/C=C/C(C)=C/CO)C(C)(C)CCC1 [retinol] | – | – | – | – | increased somewhat in proportion to concentration
hydroxypropyl β-cyclodextrin | 104% | 104% | 101% | not greatly improved | –
tocopherol | – | – | – | – | increased somewhat in proportion to concentration
